Test results from PMC12751012, “Nanoscale Direct-to-Biology Optimization and Structural Insights into Selective S. aureus TrmD Inhibitors” (Journal of Medicinal Chemistry, 2025).

What follows are molecules tested against T1, S. aureus TrmD (Staphylococcus aureus, UniProt Q2FZ43) (assay: nanoSAR direct-to-biology FP displacement screening of crude triazoles). Conditions: crude triazole at 1 μM, assuming full conversion; 500 nM TrmD, 10 nM tracer 4; read-out: % displaced tracer.
T1 construct: made in house; host or cells: E. coli BL21
T1 sequence (Q2FZ43 1-245): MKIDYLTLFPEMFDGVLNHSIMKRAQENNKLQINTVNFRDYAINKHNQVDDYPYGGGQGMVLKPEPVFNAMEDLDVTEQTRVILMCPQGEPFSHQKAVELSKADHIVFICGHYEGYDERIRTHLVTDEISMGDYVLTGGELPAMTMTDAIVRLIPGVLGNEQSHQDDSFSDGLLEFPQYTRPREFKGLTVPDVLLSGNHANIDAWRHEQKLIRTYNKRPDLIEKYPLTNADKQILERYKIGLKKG
Format: binding
From the text: Next, we conducted an S. aureus TrmD-targeting nanoSAR study. For this, alkyne 7 was reacted on a 96 nmol scale with an in-house diversity-oriented azide library (N = 320, mean pairwise Tanimoto similarity = 0.11) designed to cover a large chemical fragment space, generating a panel of 320 crude triazoles ready for FP assay investigation. The composition of the azide library is designed to be chemically diverse in several categories, including physicochemical properties such as polar surface area, lipophilicity, and the number of hydrogen bond donors and acceptors, as well as structural features like the number of aromatic rings (Figure S23). A complete list of chemical structures included in the azide library can be found in Table S4. In situ reaction conditions for CuAAC were adapted from Gehrtz et al., utilizing CuSO4, which is reduced in situ to Cu(I) by sodium ascorbate and stabilized by TBTA. Degassed water and DMSO (1:1) were used as solvents to prevent the oxidation from Cu(I) to Cu(II). For the synthesis of the triazole library, a master mix was prepared, containing all reaction components except the azides. All reactions were started by the addition of the respective azide in 24 μL at a final product concentration of 4 mM (96 nmol). Reaction mixtures were incubated for 16 h at room temperature and under an argon atmosphere in sealed 96-well plates.
For FP assay screening, we used 500 nM of S. aureus TrmD and 10 nM of tracer 4 in a total volume of 40 μL in 96-well plates. We performed control measurements and defined 10 nM of tracer 4 in buffer as 100% displacement and the DMSO control as 0% tracer displacement. […] The results of the FP screening were visualized in a waterfall plot and plate-based heatmaps (Figure , Figure S3).
Fluorescence polarization (FP) assays were performed as follows. The assays for H. influenzae TrmD have been described previously. All assays were conducted in technical triplicate using black 96-well half area plates. For the FP assays, a tracer (20 nM Cy5TPD for E. coli and H. influenzae TrmD, 10 nM tracer 4 for S. aureus TrmD) was mixed with the respective enzyme (2 μM E. coli TrmD, 2 μM H. influenzae TrmD, 500 nM S. aureus TrmD) in buffer (E. coli and H. influenzae TrmD: 50 mM HEPES, 500 mM NaCl, 5% Glycerol, pH 7.5, S. aureus TrmD: 40 mM Tris HCl, 100 mM NaCl, 10 mM MgCl2, 5% Glycerol, pH 7.5). The compounds were added in varying concentrations for K D-value determination. […] The Z-factor for tracer 4 was determined by measuring 48 replicates of the free tracer (positive controls, PC) and 48 replicates of a mixture of enzyme and tracer (negative controls, NC). The Z-factor is defined in terms of the means (μ) and standard deviations (σ) of the positive and negative controls and calculated as Z = 1–(3*(σnc + σpc)/(μnc–μpc)). […] Polarization values (mP) were determined from polarization-specific parallel and orthogonal fluorescence intensities. K D-values were calculated in GraphPad Prism 8.0.1 using the four-parameter Hill equation: y(% tracer bound) = bottom + ([ligand]-slope) × (top–bottom)/([ligand]-slope + K Dslope).
A commercial azide diversity library (Enamine) containing 320 azides at a concentration of 100 mM in DMSO in a 96-well tube rack was employed for this nanoSAR study. For the reaction of the azides with alkyne 7 via CuAAC, a master mix was prepared. […] The solvents were degassed with argon to avoid oxidation of the copper(I) during the reaction. To each well of a 96-well PCR plate (Applied Biosystems MicroAmp) were added 23 μL of the master mix and 1 μL of the 100 mM azide stock. The final concentrations in the Mastermix were: 8.7 mM sodium ascorbate (8.3 mM in reaction well), 1.1 mM TBTA (1.0 mM in reaction well), 4.3 mM 7 (4.1 mM in reaction well), 1.3 mM CuSO4×5 H2O (1.2 mM in reaction well).

SMILES	inhibition at 1 µM
O=c1[nH]cnc2[nH]cc(-c3cn(C[C@@H]4CC[C@H]4C(F)(F)F)nn3)c12 [Compound 01C12, FC(F)(F)[C@H]1[C@H](CN2N=NC(C=3C=4C(=O)NC=NC4NC3)=C2)CC1]	47%
COC(=O)[C@@H]1CCC[C@H](n2cc(-c3c[nH]c4nc[nH]c(=O)c34)nn2)C1 [Compound 01D01, O=C(OC)[C@H]1C[C@@H](N2N=NC(C=3C=4C(=O)NC=NC4NC3)=C2)CCC1]	33%
O=c1[nH]cnc2[nH]cc(-c3cn(C[C@H]4OCCOC45CCC5)nn3)c12 [Compound 01D02, O=C1NC=NC=2NC=C(C=3N=NN(C3)C[C@H]4OCCOC45CCC5)C12]	61%
O=c1[nH]cnc2[nH]cc(-c3cn([C@H]4CC[C@@H]4O)nn3)c12 [Compound 01D04, O=C1NC=NC=2NC=C(C=3N=NN(C3)[C@@H]4[C@@H](O)CC4)C12]	21%
O=c1[nH]cnc2[nH]cc(-c3cn(-c4cccc5cnccc45)nn3)c12 [Compound 01D05, O=C1NC=NC=2NC=C(C=3N=NN(c4c5c(cncc5)ccc4)C3)C12]	16%
CCc1nnc(Cn2cc(-c3c[nH]c4nc[nH]c(=O)c34)nn2)o1 [Compound 01D06, O=C1NC=NC=2NC=C(C=3N=NN(C3)CC=4OC(=NN4)CC)C12]	31%
CCOc1ccc(-n2cc(-c3c[nH]c4nc[nH]c(=O)c34)nn2)cc1 [Compound 01D07, O=C1NC=NC=2NC=C(C=3N=NN(c4ccc(OCC)cc4)C3)C12]	19%
Cc1ccccc1-n1cc(-c2c[nH]c3nc[nH]c(=O)c23)nn1 [Compound 01D08, O=C1NC=NC=2NC=C(C=3N=NN(c4c(cccc4)C)C3)C12]	9%
O=c1[nH]cnc2[nH]cc(-c3cn(CCn4cccn4)nn3)c12 [Compound 01D09, O=C1NC=NC=2NC=C(C=3N=NN(C3)CCN4N=CC=C4)C12]	39%
Cc1ccc([C@@H](O)[C@H](C)n2cc(-c3c[nH]c4nc[nH]c(=O)c34)nn2)cc1 [Compound 01D10, O=C1NC=NC=2NC=C(C=3N=NN(C3)[C@H]([C@H](O)c4ccc(cc4)C)C)C12]	49%
COC(=O)c1sccc1-n1cc(-c2c[nH]c3nc[nH]c(=O)c23)nn1 [Compound 01D11, S1C(C(=O)OC)=C(N2N=NC(C=3C=4C(=O)NC=NC4NC3)=C2)C=C1]	21%
COC(=O)c1cnoc1Cn1cc(-c2c[nH]c3nc[nH]c(=O)c23)nn1 [Compound 01D12, O=C(OC)C1=C(ON=C1)CN2N=NC(C=3C=4C(=O)NC=NC4NC3)=C2]	38%
CN(C)c1ccc(-n2cc(-c3c[nH]c4nc[nH]c(=O)c34)nn2)cc1 [Compound 01E01, O=C1NC=NC=2NC=C(C=3N=NN(c4ccc(N(C)C)cc4)C3)C12]	33%
C[C@H](c1ccccc1F)n1cc(-c2c[nH]c3nc[nH]c(=O)c23)nn1 [Compound 01E02, Fc1c(cccc1)[C@H](N2N=NC(C=3C=4C(=O)NC=NC4NC3)=C2)C]	50%
CCc1nc(Cn2cc(-c3c[nH]c4nc[nH]c(=O)c34)nn2)cs1 [Compound 01E03, S1C(=NC(=C1)CN2N=NC(C=3C=4C(=O)NC=NC4NC3)=C2)CC]	75%
O=c1[nH]cnc2[nH]cc(-c3cn(Cc4cn5ccccc5n4)nn3)c12 [Compound 01E04, O=C1NC=NC=2NC=C(C=3N=NN(C3)CC=4N=C5N(C4)C=CC=C5)C12]	46%
COC(=O)Cn1cc(-c2c[nH]c3nc[nH]c(=O)c23)nn1 [Compound 01E05, O=C(OC)CN1N=NC(C=2C=3C(=O)NC=NC3NC2)=C1]	11%
COc1ccc(-n2cc(-c3c[nH]c4nc[nH]c(=O)c34)nn2)cc1OC [Compound 01E06, O=C1NC=NC=2NC=C(C=3N=NN(c4cc(OC)c(OC)cc4)C3)C12]	19%

SMILES	inhibition at 1 µM
O=c1[nH]cnc2[nH]cc(-c3cn(CCN4CCOCC4)nn3)c12 [Compound 01E07, O=C1NC=NC=2NC=C(C=3N=NN(C3)CC[NH+]4CCOCC4)C12]	34%
CN(C)CCCn1cc(-c2c[nH]c3nc[nH]c(=O)c23)nn1 [Compound 01E08, O=C1NC=NC=2NC=C(C=3N=NN(C3)CCC[NH+](C)C)C12]	35%
CCNC(=O)Cn1cc(-c2c[nH]c3nc[nH]c(=O)c23)nn1 [Compound 01E09, O=C1NC=NC=2NC=C(C=3N=NN(C3)CC(=O)NCC)C12]	33%
Cn1cc(-n2cc(-c3c[nH]c4nc[nH]c(=O)c34)nn2)cn1 [Compound 01E10, O=C1NC=NC=2NC=C(C=3N=NN(C=4C=NN(C4)C)C3)C12]	17%
Cc1csc(C[C@H](C)n2cc(-c3c[nH]c4nc[nH]c(=O)c34)nn2)n1 [Compound 01E11, S1C(=NC(=C1)C)C[C@@H](N2N=NC(C=3C=4C(=O)NC=NC4NC3)=C2)C]	31%
O=c1[nH]cnc2[nH]cc(-c3cn(-c4ccccc4-c4ccccc4)nn3)c12 [Compound 01E12, O=C1NC=NC=2NC=C(C=3N=NN(c4c(c5ccccc5)cccc4)C3)C12]	34%
N#CC1(Cn2cc(-c3c[nH]c4nc[nH]c(=O)c34)nn2)CCCC1 [Compound 01F01, O=C1NC=NC=2NC=C(C=3N=NN(C3)CC4(C#N)CCCC4)C12]	74%
C[C@@H](C(=O)Nc1ccccc1)n1cc(-c2c[nH]c3nc[nH]c(=O)c23)nn1 [Compound 01F02, O=C1NC=NC=2NC=C(C=3N=NN(C3)[C@H](C(=O)Nc4ccccc4)C)C12]	28%
CS(=O)(=O)NCCn1cc(-c2c[nH]c3nc[nH]c(=O)c23)nn1 [Compound 01F03, S(=O)(=O)(NCCN1N=NC(C=2C=3C(=O)NC=NC3NC2)=C1)C]	62%
Cn1cc(Cn2cc(-c3c[nH]c4nc[nH]c(=O)c34)nn2)cn1 [Compound 01F04, O=C1NC=NC=2NC=C(C=3N=NN(C3)CC=4C=NN(C4)C)C12]	57%
NC(=O)c1cc(-n2cc(-c3c[nH]c4nc[nH]c(=O)c34)nn2)ccn1 [Compound 01F05, O=C(N)c1nccc(N2N=NC(C=3C=4C(=O)NC=NC4NC3)=C2)c1]	16%
O=c1[nH]cnc2[nH]cc(-c3cn(Cc4cnc(C(F)(F)F)s4)nn3)c12 [Compound 01F06, S1C(=NC=C1CN2N=NC(C=3C=4C(=O)NC=NC4NC3)=C2)C(F)(F)F]	72%
Cc1nc2ccc(-n3cc(-c4c[nH]c5nc[nH]c(=O)c45)nn3)cc2s1 [Compound 01F07, S1c2c(N=C1C)ccc(N3N=NC(C=4C=5C(=O)NC=NC5NC4)=C3)c2]	11%
O=c1[nH]cnc2[nH]cc(-c3cn(-c4ccc5c(c4)CCC5)nn3)c12 [Compound 01F08, O=C1NC=NC=2NC=C(C=3N=NN(c4cc5c(cc4)CCC5)C3)C12]	5%
Cc1nc(Cn2cc(-c3c[nH]c4nc[nH]c(=O)c34)nn2)cs1 [Compound 01F09, S1C(=NC(=C1)CN2N=NC(C=3C=4C(=O)NC=NC4NC3)=C2)C]	53%
O=c1[nH]cnc2[nH]cc(-c3cn(Cc4cccc5ccccc45)nn3)c12 [Compound 01F10, O=C1NC=NC=2NC=C(C=3N=NN(C3)Cc4c5c(ccc4)cccc5)C12]	84%
C[C@@H](n1cc(-c2c[nH]c3nc[nH]c(=O)c23)nn1)C12CC(CO1)C2 [Compound 01F11, O=C1NC=NC=2NC=C(C=3N=NN(C3)[C@@H](C45OCC(C4)C5)C)C12]	26%
